Data published in patent CN101659655A, “一类吡唑酰胺衍生物及其应用” (Nankai University, priority 2009, dated 2010).

Legend:
Type in all cases: in vivo
[1] = tested on: oriental armyworm, Mythimna separata Walker (东方粘虫); test: bioactivity evaluation against oriental armyworm, leaf dip; conditions: in Zea mays, foliar, 72 h, read-out: mortality grade
[2] = tested on: diamondback moth, Plutella xylostella (L.) (小菜蛾); test: bioactivity evaluation against diamondback moth, leaf dip; conditions: in Brassica oleracea, foliar, 72 h, read-out: mortality grade
[3] = tested on: beet armyworm, Laphygma exigua Hubner (甜菜夜蛾); test: bioactivity evaluation against beet armyworm, leaf dip; conditions: Spodoptera exigua, in Brassica oleracea, foliar, 72 h, read-out: mortality grade

Measured: mortality at 500 ppm

Cc1cc(Cl)cc(C(=O)NC2CC2)c1NC(=O)c1cc(OCC(F)(F)F)nn1-c1ncccc1Cl [compound 18]
90 to 100%: all assays above
